The NIST ThermoML archive (doi:10.1016/j.jct.2005.03.012)

Experiment: excess molar enthalpy (molar enthalpy of mixing); xn = mol fraction of the nth substance listed
Settings: Liquid

CO [methanol] + O
Settings | excess molar enthalpy [kcal/mol]
355.11 K, 5000 kPa, x1 = 0.3 | -0.0957
373.15 K, 5000 kPa, x1 = 0.1 | -0.0386
373.15 K, 5000 kPa, x1 = 0.2 | -0.053
373.15 K, 5000 kPa, x1 = 0.3 | -0.0554
373.15 K, 5000 kPa, x1 = 0.4 | -0.0527
373.15 K, 5000 kPa, x1 = 0.5 | -0.0495
373.15 K, 5000 kPa, x1 = 0.6 | -0.0465
373.15 K, 5000 kPa, x1 = 0.7 | -0.0425
373.15 K, 5000 kPa, x1 = 0.8 | -0.0361
373.15 K, 5000 kPa, x1 = 0.9 | -0.0233
373.82 K, 5000 kPa, x1 = 0.9 | -0.0227
374.46 K, 5000 kPa, x1 = 0.8 | -0.0342
374.83 K, 5000 kPa, x1 = 0.7 | -0.0394
375.03 K, 5000 kPa, x1 = 0.1 | -0.0377
375.03 K, 5000 kPa, x1 = 0.2 | -0.0491
375.03 K, 5000 kPa, x1 = 0.3 | -0.0508
375.03 K, 5000 kPa, x1 = 0.4 | -0.0479
375.03 K, 5000 kPa, x1 = 0.5 | -0.045
375.03 K, 5000 kPa, x1 = 0.6 | -0.0422
375.03 K, 5000 kPa, x1 = 0.7 | -0.0388
375.03 K, 5000 kPa, x1 = 0.8 | -0.0333
375.03 K, 5000 kPa, x1 = 0.9 | -0.0214
375.05 K, 5000 kPa, x1 = 0.1 | -0.0364
375.09 K, 5000 kPa, x1 = 0.6 | -0.0424
375.26 K, 5000 kPa, x1 = 0.5 | -0.0447
375.35 K, 5000 kPa, x1 = 0.9 | -0.0212
375.45 K, 5000 kPa, x1 = 0.4 | -0.0473
375.66 K, 5000 kPa, x1 = 0.3 | -0.0498
375.68 K, 5000 kPa, x1 = 0.2 | -0.0484
376.12 K, 5000 kPa, x1 = 0.8 | -0.0318
376.69 K, 5000 kPa, x1 = 0.7 | -0.0358
376.94 K, 5000 kPa, x1 = 0.6 | -0.0382
376.98 K, 5000 kPa, x1 = 0.1 | -0.034
377.07 K, 5000 kPa, x1 = 0.5 | -0.0403
377.26 K, 5000 kPa, x1 = 0.4 | -0.0427
377.41 K, 5000 kPa, x1 = 0.3 | -0.0455
377.47 K, 5000 kPa, x1 = 0.2 | -0.0447
420.87 K, 10000 kPa, x1 = 0.4 | 0.0499
420.97 K, 2000 kPa, x1 = 0.4 | 0.0467
420.98 K, 5000 kPa, x1 = 0.4 | 0.0483
420.98 K, 5000 kPa, x1 = 0.5 | 0.051
421.12 K, 10000 kPa, x1 = 0.6 | 0.0491
421.18 K, 5000 kPa, x1 = 0.6 | 0.048
421.19 K, 2000 kPa, x1 = 0.6 | 0.0457
421.39 K, 5000 kPa, x1 = 0.3 | 0.0384
421.51 K, 5000 kPa, x1 = 0.7 | 0.0404
421.69 K, 10000 kPa, x1 = 0.2 | 0.0282
421.8 K, 2000 kPa, x1 = 0.2 | 0.0262
421.84 K, 5000 kPa, x1 = 0.2 | 0.0269
421.92 K, 10000 kPa, x1 = 0.8 | 0.0294
421.97 K, 2000 kPa, x1 = 0.8 | 0.0259
421.98 K, 5000 kPa, x1 = 0.8 | 0.0283
422.47 K, 5000 kPa, x1 = 0.9 | 0.0141
422.53 K, 5000 kPa, x1 = 0.1 | 0.0114
422.8 K, 10000 kPa, x1 = 0.4 | 0.0539
422.84 K, 5000 kPa, x1 = 0.4 | 0.0521
422.84 K, 5000 kPa, x1 = 0.5 | 0.0547
422.86 K, 2000 kPa, x1 = 0.4 | 0.05
423.02 K, 10000 kPa, x1 = 0.6 | 0.0528
423.08 K, 2000 kPa, x1 = 0.6 | 0.049
423.12 K, 5000 kPa, x1 = 0.6 | 0.0512
423.14 K, 5000 kPa, x1 = 0.7 | 0.0432
423.15 K, 2000 kPa, x1 = 0.2 | 0.0278
423.15 K, 2000 kPa, x1 = 0.4 | 0.0501
423.15 K, 2000 kPa, x1 = 0.6 | 0.0484
423.15 K, 2000 kPa, x1 = 0.8 | 0.027
423.15 K, 5000 kPa, x1 = 0.1 | 0.0118
423.15 K, 5000 kPa, x1 = 0.2 | 0.0287
423.15 K, 5000 kPa, x1 = 0.3 | 0.0414
423.15 K, 5000 kPa, x1 = 0.4 | 0.0522
423.15 K, 5000 kPa, x1 = 0.5 | 0.0549
423.15 K, 5000 kPa, x1 = 0.6 | 0.0514
423.15 K, 5000 kPa, x1 = 0.7 | 0.0421
423.15 K, 5000 kPa, x1 = 0.8 | 0.0294
423.15 K, 5000 kPa, x1 = 0.9 | 0.0143
423.15 K, 10000 kPa, x1 = 0.2 | 0.0302
423.15 K, 10000 kPa, x1 = 0.4 | 0.0538
423.15 K, 10000 kPa, x1 = 0.6 | 0.0531
423.15 K, 10000 kPa, x1 = 0.8 | 0.0302
423.37 K, 5000 kPa, x1 = 0.3 | 0.0416
423.39 K, 5000 kPa, x1 = 0.8 | 0.0299
423.49 K, 2000 kPa, x1 = 0.8 | 0.0275
423.62 K, 10000 kPa, x1 = 0.8 | 0.0305
423.64 K, 10000 kPa, x1 = 0.2 | 0.0315
423.68 K, 5000 kPa, x1 = 0.2 | 0.0299
423.69 K, 2000 kPa, x1 = 0.2 | 0.0288
423.76 K, 5000 kPa, x1 = 0.9 | 0.0151
424.45 K, 5000 kPa, x1 = 0.1 | 0.0132
424.96 K, 5000 kPa, x1 = 0.1 | 0.0136
424.96 K, 5000 kPa, x1 = 0.2 | 0.0315
424.96 K, 5000 kPa, x1 = 0.3 | 0.0442
424.96 K, 5000 kPa, x1 = 0.4 | 0.056
424.96 K, 5000 kPa, x1 = 0.5 | 0.0586
424.96 K, 5000 kPa, x1 = 0.6 | 0.0565
424.96 K, 5000 kPa, x1 = 0.7 | 0.0451
424.96 K, 5000 kPa, x1 = 0.8 | 0.0318
424.96 K, 5000 kPa, x1 = 0.9 | 0.016
425 K, 2000 kPa, x1 = 0.2 | 0.0306
425 K, 2000 kPa, x1 = 0.4 | 0.054
425 K, 2000 kPa, x1 = 0.6 | 0.0545
425 K, 2000 kPa, x1 = 0.8 | 0.0286
425.1 K, 10000 kPa, x1 = 0.2 | 0.0334
425.1 K, 10000 kPa, x1 = 0.4 | 0.0578
425.1 K, 10000 kPa, x1 = 0.6 | 0.0584
